Reference: patent EP0186365A2, “Preparation of alcohols” (UNITED KINGDOM ATOMIC ENERGY AUTHORITY, priority 1984, dated 1986)

Experiments:
[1] = molecular target: T1, Horse liver alcohol dehydrogenase or HLADH (Equus caballus, UniProt P00327); test: Example 4: activity of immobilised HLADH in the reduction of aldehydes (NADH absorbance decrease at 380 nm); type: biochemical; conditions: aldehyde as substrate (2mM), NADH (1mM), pH 7.0, 22 °C, initial rate over 2 minutes
T1 construct: whether it is derived from yeast (i.e. is a YADH) from horse liver (HLADH), or from another source; from tissue; host or cells: horse liver
Description: Horse liver alcohol dehydrogenase or HLADH (50 mg; 1 U/mg) was reacted with swelled CNBr-activated Sepharose 4B (Registered Trade Mark) beads (0.8 g).
The activity of the immobilised enzyme in the reduction of aldehydes to alcohols was determined in coupling buffer (0.1 M; pH 7.0) at 22 (+2)°C as the initial rate of decrease in absorbance at 380 nm over a 2 minute time period using NADH (lmM) and aldehyde (2mM).

YADH [2] = molecular target: T2, YADH (Saccharomyces cerevisiae, UniProt P00330); test: Inhibition/inactivation of YADH in solution by incubation with aldehyde; type: biochemical, yeast
T2 sequence (P00330 1-348): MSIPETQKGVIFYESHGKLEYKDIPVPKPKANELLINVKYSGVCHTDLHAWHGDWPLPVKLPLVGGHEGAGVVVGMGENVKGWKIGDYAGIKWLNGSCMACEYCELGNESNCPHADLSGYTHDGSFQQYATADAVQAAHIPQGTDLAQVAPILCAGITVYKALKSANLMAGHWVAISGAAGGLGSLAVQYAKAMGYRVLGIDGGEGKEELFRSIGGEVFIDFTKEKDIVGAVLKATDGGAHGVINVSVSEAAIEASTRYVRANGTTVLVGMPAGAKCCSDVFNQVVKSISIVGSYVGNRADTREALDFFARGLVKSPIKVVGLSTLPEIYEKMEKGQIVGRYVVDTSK
Text: The enzymatic reduction of aldehydes may, however, present a serious problem due to the aldehyde, whilst being a substrate for the enzyme, being a potent irreversible inhibitor.

YADH [3] = molecular target: T2, YADH; test: Example 3 (ii): inhibition of soluble YADH after pre-incubation with aldehyde; type: biochemical, yeast; conditions: soluble enzyme; 2 mM aldehyde, 60 min, 22 °C, then dialysis; assayed with trans-cinnamaldehyde (5 mM)
Description: By way of comparison, stock enzyme solution (800 µ1; 0.2 mg protein/ml) was incubated with cinnamaldehyde (200 µ1; 10 mM). This also gave a final aldehyde concentration of 2 mM and a protein concentration of 0.16 mg/ml. The reaction mixture was incubated at 22 (+2)^OC for 60 min with continuous gentle agitation. After incubation, the soluble enzyme was dialysed against coupling buffer (30 ml; 0.lM) at 4°C for 21/2 hours with one change of buffer. Enzyme activity was assayed immediately after dialysis using trans-cinnamaldehyde (5 mM) as assay substrate with a protein concentration of 0.2 mg/ml.

YADH [4] = molecular target: T2, YADH; test: Example 3 (i): inhibition of immobilised YADH after pre-incubation with aldehyde; type: biochemical, yeast; conditions: immobilised enzyme; 2 mM aldehyde, 60 min, 22 °C, then washing; assayed with trans-cinnamaldehyde (5 mM)
Description: YADH (15 mg; 200U/mg) was reacted with swelled CNBr-activated Sepharose 4B (Registered Trade Mark) beads (0.4 g; ex Pharmacia) and coupling carried out in sodium phosphate buffer (0.1M; pH 7.0) containing KCl (0.5 M) for 18 hours at 4°C. Approximately 90% of the enzyme was thus immobilised.
(§1) In order to test the inhibition of the immobilised enzyme by aldehyde, the beads (50 - 60 µl) were incubated with trans-cinnamaldehyde ([…]; 10 mM) and a coupling buffer (3.95 ml; pH 7.0). This gave a final aldehyde concentration of 2 mM and a protein concentration of 0.16 mg/ml. The reaction mixture was incubated at 22 (+2)°C for 60 min with continuous gentle agitation. The immobilised enzyme was washed three times in coupling buffer (10 ml) at 22 (+2)C and resuspended in eight times of its original volume in coupling buffer. Enzyme activity was assayed immediately after washing using trans-cinnamaldehyde (5 mM) as assay substrate with a protein concentration of 0.2 mg/ml.

immobilised HLADH = molecular target: T3, immobilised HLADH (Equus caballus, UniProt P00327); test: Example 5: inhibition of immobilised HLADH by aldehydes; type: biochemical, horse; conditions: (b) immobilised HLADH; assay using the aldehyde used in pre-incubation
T3 construct: whether it is derived from yeast (i.e. is a YADH) from horse liver (HLADH), or from another source; from tissue; host or cells: horse liver
Description: as §1
Horse liver alcohol dehydrogenase or HLADH (50 mg; 1 U/mg) was reacted with swelled CNBr-activated Sepharose 4B (Registered Trade Mark) beads (0.8 g). Approximately 90% of the enzyme was thus immobilised.
The inhibition of the immobilised enzyme (prepared as in Example 4) by aldehydes was tested and compared with the soluble enzyme as described in Example 3. The results were as follows:
(a) assaying using trans-cinnamaldehyde following pre-incubation using a different aldehyde
(b) assaying using the aldehyde used in pre-incubation

[5] = solution of the enzyme incubated with 5 mM aldehyde

T1 sequence (P00327 whole entry): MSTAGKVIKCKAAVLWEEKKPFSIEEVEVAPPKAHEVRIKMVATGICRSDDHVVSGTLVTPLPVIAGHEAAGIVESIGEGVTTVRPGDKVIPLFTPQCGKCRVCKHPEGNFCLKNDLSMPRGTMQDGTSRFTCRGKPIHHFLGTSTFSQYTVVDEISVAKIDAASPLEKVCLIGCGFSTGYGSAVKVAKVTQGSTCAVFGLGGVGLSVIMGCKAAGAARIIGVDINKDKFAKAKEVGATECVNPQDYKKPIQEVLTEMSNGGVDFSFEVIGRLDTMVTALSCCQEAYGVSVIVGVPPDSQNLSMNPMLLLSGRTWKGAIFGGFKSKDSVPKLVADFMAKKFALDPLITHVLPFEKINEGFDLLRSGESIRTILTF
T3 sequence (P00327 whole entry): as above

Structure (SMILES)	activity [1]	further results
CC(C)c1ccc(C=O)cc1 [p-cuminaldehyde]	0.94 micromoles NADH/min/mg protein	
O=CC=Cc1ccccc1 [cinnamaldehyde]		time to 50% inhibition (YADH [2]; [5]): 12 min; time to total inhibition (YADH [2]; [5]): about 30 minutes; inhibition at 2000 µM (YADH [3]): 90%
O=C/C=C/c1ccccc1 [trans-cinnamaldehyde]	1.36 micromoles NADH/min/mg protein	inhibition at 2000 µM (YADH [4]): 50%
O=Cc1ccc(O)cc1 [p-hydroxybenzaldehyde]	0.94 micromoles NADH/min/mg protein	
CC(C)=CCCC(C)CC=O (centres unmarked) [citronellal]	0.75 micromoles NADH/min/mg protein	inhibition at 2000 µM (immobilised HLADH): 11%
CC(C)=CCCC(C)=CC=O [citral]	0.91 micromoles NADH/min/mg protein	
O=Cc1ccccc1O [salicylaldehyde]	0.57 micromoles NADH/min/mg protein	
COc1ccc(C=O)cc1 [p-anisaldehyde]	1.55 micromoles NADH/min/mg protein	
OCC=Cc1ccccc1 [cinnamyl alcohol]		inhibitory effect (YADH [2]; even at 8 mM): no inhibitory effect
O=Cc1ccc2c(c1)OCO2 [piperonaldehyde]	1.47 micromoles NADH/min/mg protein	
